One series can be described thus: The drug is tested on Bacteroides finegoldii strain: DSM17565 for biotransformation. The drug concentrations were measured before and after a 12-h incubation by liquid-chromatography-coupled mass spectrometry (LC–MS). The settings on record: 2 µM.
On to `CSc1ccc2c(c1)C(N1CCN(C)CC1)Cc1ccccc1S2.O=C(O)/C=C\C(=O)O` (stereo unspecified), for which the “Bacterial Biotransformation” value is on record as “Compound NOT metabolized”.
Turning to `Clc1cccc(Cl)c1N=C1NCCN1` [CLONIDINE], the “Bacterial Biotransformation” value is “Compound NOT metabolized”.
As to `Cc1nc2n(c(=O)c1CCN1CCC(c3noc4cc(F)ccc34)CC1)CCCC2O` (stereo unspecified) [PALIPERIDONE], the “Bacterial Biotransformation” value is recorded as “Compound metabolized”.

A short description of a further series: The drug is tested on Bacteroides fragilis strain: ATCC43859 for biotransformation. The drug concentrations were measured before and after a 12-h incubation by liquid-chromatography-coupled mass spectrometry (LC–MS). The following applies: 2 µM.
`CSc1ccc2c(c1)C(N1CCN(C)CC1)Cc1ccccc1S2.O=C(O)/C=C\C(=O)O` (stereo unspecified): the “Bacterial Biotransformation” value was “Compound NOT metabolized”.

The conditions of another series: parabacteroides distasonis, 12 h, 2 µM.
Description: The drug is tested on Parabacteroides distasonis strain: ATCC8503 for biotransformation. The drug concentrations were measured before and after a 12-h incubation by liquid-chromatography-coupled mass spectrometry (LC–MS)
In the case of `CSc1ccc2c(c1)C(N1CCN(C)CC1)Cc1ccccc1S2.O=C(O)/C=C\C(=O)O` (stereo unspecified), the “Bacterial Biotransformation” value was “Compound metabolized”.
As for `Clc1cccc(Cl)c1N=C1NCCN1` [CLONIDINE], the “Bacterial Biotransformation” value is listed as “Compound NOT metabolized”.
Consider `Cc1nc2n(c(=O)c1CCN1CCC(c3noc4cc(F)ccc34)CC1)CCCC2O` (stereo unspecified) [PALIPERIDONE], for which the “Bacterial Biotransformation” value is given as “Compound metabolized”.

The nature of a further series: The drug is tested on Collinsella aerofaciens strain: ATCC25986 for biotransformation. The drug concentrations were measured before and after a 12-h incubation by liquid-chromatography-coupled mass spectrometry (LC–MS). The settings on record: 2 µM.
Take `CSc1ccc2c(c1)C(N1CCN(C)CC1)Cc1ccccc1S2.O=C(O)/C=C\C(=O)O` (stereo unspecified): the “Bacterial Biotransformation” value is listed as “Compound NOT metabolized”.
On to `Clc1cccc(Cl)c1N=C1NCCN1` [CLONIDINE], for which the “Bacterial Biotransformation” value was “Compound NOT metabolized”.
As to `Cc1nc2n(c(=O)c1CCN1CCC(c3noc4cc(F)ccc34)CC1)CCCC2O` (stereo unspecified) [PALIPERIDONE], the “Bacterial Biotransformation” value is on record as “Compound metabolized”.

Another series in a line: The drug is tested on Bacteroides fragilis strain: HMW615 for biotransformation. The drug concentrations were measured before and after a 12-h incubation by liquid-chromatography-coupled mass spectrometry (LC–MS). The following applies: 2 µM.
On to `Clc1cccc(Cl)c1N=C1NCCN1` [CLONIDINE], for which the “Bacterial Biotransformation” value is given as “Compound metabolized”.
On to `Cc1nc2n(c(=O)c1CCN1CCC(c3noc4cc(F)ccc34)CC1)CCCC2O` (stereo unspecified) [PALIPERIDONE], for which the “Bacterial Biotransformation” value is listed as “Compound NOT metabolized”.

Another series can be described thus: The drug is tested on Clostridium sporogenes strain: ATCC15579 for biotransformation. The drug concentrations were measured before and after a 12-h incubation by liquid-chromatography-coupled mass spectrometry (LC–MS). The settings on record: 2 µM.
For `CSc1ccc2c(c1)C(N1CCN(C)CC1)Cc1ccccc1S2.O=C(O)/C=C\C(=O)O` (stereo unspecified), the “Bacterial Biotransformation” value is “Compound metabolized”.
On to `Clc1cccc(Cl)c1N=C1NCCN1` [CLONIDINE], for which the “Bacterial Biotransformation” value was “Compound NOT metabolized”.
On to `Cc1nc2n(c(=O)c1CCN1CCC(c3noc4cc(F)ccc34)CC1)CCCC2O` (stereo unspecified) [PALIPERIDONE], for which the “Bacterial Biotransformation” value was “Compound metabolized”.

For the next series the following is noted: bacteroides intestinalis, 12 h, 2 µM.
Description: The drug is tested on Bacteroides intestinalis strain: DSM17393 for biotransformation. The drug concentrations were measured before and after a 12-h incubation by liquid-chromatography-coupled mass spectrometry (LC–MS)
Consider `CSc1ccc2c(c1)C(N1CCN(C)CC1)Cc1ccccc1S2.O=C(O)/C=C\C(=O)O` (stereo unspecified), for which the “Bacterial Biotransformation” value is “Compound NOT metabolized”.
Consider `Clc1cccc(Cl)c1N=C1NCCN1` [CLONIDINE], for which the “Bacterial Biotransformation” value is “Compound NOT metabolized”.
Turning to `Cc1nc2n(c(=O)c1CCN1CCC(c3noc4cc(F)ccc34)CC1)CCCC2O` (stereo unspecified) [PALIPERIDONE], the “Bacterial Biotransformation” value is “Compound metabolized”.

Another series can be described thus: The drug is tested on Coprococcus comes strain: ATCC27758 for biotransformation. The drug concentrations were measured before and after a 12-h incubation by liquid-chromatography-coupled mass spectrometry (LC–MS). The class given is ADME. The arrangement: dose 2 uM, timepoint 0 vs 12 hours. The following applies: 2 µM.
On to `Clc1cccc(Cl)c1N=C1NCCN1` [CLONIDINE], for which the “Bacterial Biotransformation” value is reported as “Compound NOT metabolized”.
For `Cc1nc2n(c(=O)c1CCN1CCC(c3noc4cc(F)ccc34)CC1)CCCC2O` (stereo unspecified) [PALIPERIDONE], the “Bacterial Biotransformation” value is given as “Compound metabolized”.

The next series is described as follows: The drug is tested on Eubacterium hallii strain: DSM3353 for biotransformation. The drug concentrations were measured before and after a 12-h incubation by liquid-chromatography-coupled mass spectrometry (LC–MS). The settings on record: anaerobutyricum hallii, 2 µM.
For `CSc1ccc2c(c1)C(N1CCN(C)CC1)Cc1ccccc1S2.O=C(O)/C=C\C(=O)O` (stereo unspecified), the “Bacterial Biotransformation” value is given as “Compound NOT metabolized”.
With `Clc1cccc(Cl)c1N=C1NCCN1` [CLONIDINE], the “Bacterial Biotransformation” value is given as “Compound NOT metabolized”.
Take `Cc1nc2n(c(=O)c1CCN1CCC(c3noc4cc(F)ccc34)CC1)CCCC2O` (stereo unspecified) [PALIPERIDONE]: the “Bacterial Biotransformation” value is on record as “Compound metabolized”.

The next series can be described thus: The drug is tested on Bifidobacterium longum subsp. Infantis strain: CCUG52486 for biotransformation. The drug concentrations were measured before and after a 12-h incubation by liquid-chromatography-coupled mass spectrometry (LC–MS). The following applies: 2 µM.
Turning to `CSc1ccc2c(c1)C(N1CCN(C)CC1)Cc1ccccc1S2.O=C(O)/C=C\C(=O)O` (stereo unspecified), the “Bacterial Biotransformation” value was “Compound NOT metabolized”.
In the case of `Clc1cccc(Cl)c1N=C1NCCN1` [CLONIDINE], the “Bacterial Biotransformation” value is recorded as “Compound NOT metabolized”.
For the compound `Cc1nc2n(c(=O)c1CCN1CCC(c3noc4cc(F)ccc34)CC1)CCCC2O` (stereo unspecified) [PALIPERIDONE], the “Bacterial Biotransformation” value was “Compound metabolized”.

The nature of another series: The drug is tested on Providencia rettgeri strain: DSM1131 for biotransformation. The drug concentrations were measured before and after a 12-h incubation by liquid-chromatography-coupled mass spectrometry (LC–MS). The series is classed as ADME. The arrangement: dose 2 uM, timepoint 0 vs 12 hours. The settings on record: 2 µM.
Regarding `CSc1ccc2c(c1)C(N1CCN(C)CC1)Cc1ccccc1S2.O=C(O)/C=C\C(=O)O` (stereo unspecified), the “Bacterial Biotransformation” value is listed as “Compound NOT metabolized”.
As to `Clc1cccc(Cl)c1N=C1NCCN1` [CLONIDINE], the “Bacterial Biotransformation” value is reported as “Compound NOT metabolized”.
Turning to `Cc1nc2n(c(=O)c1CCN1CCC(c3noc4cc(F)ccc34)CC1)CCCC2O` (stereo unspecified) [PALIPERIDONE], the “Bacterial Biotransformation” value is “Compound metabolized”.

For another series the following is noted: anaerostipes sp., 12 h, 2 µM.
Description: The drug is tested on Anaerostipes sp. strain: fecal isolate for biotransformation. The drug concentrations were measured before and after a 12-h incubation by liquid-chromatography-coupled mass spectrometry (LC–MS)
On to `CSc1ccc2c(c1)C(N1CCN(C)CC1)Cc1ccccc1S2.O=C(O)/C=C\C(=O)O` (stereo unspecified), for which the “Bacterial Biotransformation” value is recorded as “Compound metabolized”.
Turning to `Clc1cccc(Cl)c1N=C1NCCN1` [CLONIDINE], the “Bacterial Biotransformation” value was “Compound NOT metabolized”.
Consider `Cc1nc2n(c(=O)c1CCN1CCC(c3noc4cc(F)ccc34)CC1)CCCC2O` (stereo unspecified) [PALIPERIDONE], for which the “Bacterial Biotransformation” value is given as “Compound metabolized”.

The next series can be described thus: The drug is tested on Odoribacter splanchnicus strain: fecal isolate for biotransformation. The drug concentrations were measured before and after a 12-h incubation by liquid-chromatography-coupled mass spectrometry (LC–MS). The following applies: 2 µM.
As to `CSc1ccc2c(c1)C(N1CCN(C)CC1)Cc1ccccc1S2.O=C(O)/C=C\C(=O)O` (stereo unspecified), the “Bacterial Biotransformation” value is given as “Compound NOT metabolized”.
As to `Clc1cccc(Cl)c1N=C1NCCN1` [CLONIDINE], the “Bacterial Biotransformation” value is given as “Compound metabolized”.
For the compound `Cc1nc2n(c(=O)c1CCN1CCC(c3noc4cc(F)ccc34)CC1)CCCC2O` (stereo unspecified) [PALIPERIDONE], the “Bacterial Biotransformation” value was “Compound metabolized”.

The next series is described as follows: The drug is tested on Enterobacter cancerogenus strain: ATCC35316 for biotransformation. The drug concentrations were measured before and after a 12-h incubation by liquid-chromatography-coupled mass spectrometry (LC–MS). The following applies: 2 µM.
As to `CSc1ccc2c(c1)C(N1CCN(C)CC1)Cc1ccccc1S2.O=C(O)/C=C\C(=O)O` (stereo unspecified), the “Bacterial Biotransformation” value was “Compound NOT metabolized”.
For the compound `Clc1cccc(Cl)c1N=C1NCCN1` [CLONIDINE], the “Bacterial Biotransformation” value is given as “Compound NOT metabolized”.
On the same count and under the same terms, to `Cc1nc2n(c(=O)c1CCN1CCC(c3noc4cc(F)ccc34)CC1)CCCC2O` (stereo unspecified) [PALIPERIDONE] belongs “Compound metabolized”.

The conditions of a further series: bacteroides fragilis, 12 h, 2 µM.
Description: The drug is tested on Bacteroides fragilis strain: 3397 (T10) for biotransformation. The drug concentrations were measured before and after a 12-h incubation by liquid-chromatography-coupled mass spectrometry (LC–MS)
Consider `CSc1ccc2c(c1)C(N1CCN(C)CC1)Cc1ccccc1S2.O=C(O)/C=C\C(=O)O` (stereo unspecified), for which the “Bacterial Biotransformation” value was “Compound NOT metabolized”.
With `Clc1cccc(Cl)c1N=C1NCCN1` [CLONIDINE], the “Bacterial Biotransformation” value is on record as “Compound metabolized”.
As to `Cc1nc2n(c(=O)c1CCN1CCC(c3noc4cc(F)ccc34)CC1)CCCC2O` (stereo unspecified) [PALIPERIDONE], the “Bacterial Biotransformation” value is listed as “Compound metabolized”.

Another series is described as follows: The drug is tested on Bacteroides caccae strain: ATCC43185 for biotransformation. The drug concentrations were measured before and after a 12-h incubation by liquid-chromatography-coupled mass spectrometry (LC–MS). The settings on record: 2 µM.
As for `CSc1ccc2c(c1)C(N1CCN(C)CC1)Cc1ccccc1S2.O=C(O)/C=C\C(=O)O` (stereo unspecified), the “Bacterial Biotransformation” value is “Compound NOT metabolized”.
The same measure, in the same setting: the entry for `Clc1cccc(Cl)c1N=C1NCCN1` [CLONIDINE] is “Compound NOT metabolized”; for `Cc1nc2n(c(=O)c1CCN1CCC(c3noc4cc(F)ccc34)CC1)CCCC2O` (stereo unspecified) [PALIPERIDONE] it is “Compound metabolized”.

For another series the following is noted: bacteroides thetaiotaomicron, 12 h, 2 µM.
Description: The drug is tested on Bacteroides thetaiotaomicron strain: 3731 for biotransformation. The drug concentrations were measured before and after a 12-h incubation by liquid-chromatography-coupled mass spectrometry (LC–MS)
As for `CSc1ccc2c(c1)C(N1CCN(C)CC1)Cc1ccccc1S2.O=C(O)/C=C\C(=O)O` (stereo unspecified), the “Bacterial Biotransformation” value is given as “Compound NOT metabolized”.
Consider `Clc1cccc(Cl)c1N=C1NCCN1` [CLONIDINE], for which the “Bacterial Biotransformation” value was “Compound metabolized”.
In the case of `Cc1nc2n(c(=O)c1CCN1CCC(c3noc4cc(F)ccc34)CC1)CCCC2O` (stereo unspecified) [PALIPERIDONE], the “Bacterial Biotransformation” value is given as “Compound metabolized”.

A short description of the next series: The drug is tested on Ruminococcus lactaris strain: ATCC29176 for biotransformation. The drug concentrations were measured before and after a 12-h incubation by liquid-chromatography-coupled mass spectrometry (LC–MS). The following applies: 2 µM.
Turning to `CSc1ccc2c(c1)C(N1CCN(C)CC1)Cc1ccccc1S2.O=C(O)/C=C\C(=O)O` (stereo unspecified), the “Bacterial Biotransformation” value is listed as “Compound NOT metabolized”.
Consider `Clc1cccc(Cl)c1N=C1NCCN1` [CLONIDINE], for which the “Bacterial Biotransformation” value is recorded as “Compound NOT metabolized”.
For `Cc1nc2n(c(=O)c1CCN1CCC(c3noc4cc(F)ccc34)CC1)CCCC2O` (stereo unspecified) [PALIPERIDONE], the “Bacterial Biotransformation” value is “Compound metabolized”.

A further series is described as follows: The drug is tested on Bacteroides xylanisolvens strain: DSM18836 for biotransformation. The drug concentrations were measured before and after a 12-h incubation by liquid-chromatography-coupled mass spectrometry (LC–MS). The settings on record: 2 µM.
Turning to `CSc1ccc2c(c1)C(N1CCN(C)CC1)Cc1ccccc1S2.O=C(O)/C=C\C(=O)O` (stereo unspecified), the “Bacterial Biotransformation” value is “Compound NOT metabolized”.
Consider `Clc1cccc(Cl)c1N=C1NCCN1` [CLONIDINE], for which the “Bacterial Biotransformation” value was “Compound NOT metabolized”.
`Cc1nc2n(c(=O)c1CCN1CCC(c3noc4cc(F)ccc34)CC1)CCCC2O` (stereo unspecified) [PALIPERIDONE]: the “Bacterial Biotransformation” value is “Compound metabolized”.

The next series can be described thus: The drug is tested on Clostridium scindens strain: ATCC35704 for biotransformation. The drug concentrations were measured before and after a 12-h incubation by liquid-chromatography-coupled mass spectrometry (LC–MS). The settings on record: 2 µM.
Consider `CSc1ccc2c(c1)C(N1CCN(C)CC1)Cc1ccccc1S2.O=C(O)/C=C\C(=O)O` (stereo unspecified), for which the “Bacterial Biotransformation” value is given as “Compound metabolized”.
`Clc1cccc(Cl)c1N=C1NCCN1` [CLONIDINE]: the “Bacterial Biotransformation” value was “Compound NOT metabolized”.
Consider `Cc1nc2n(c(=O)c1CCN1CCC(c3noc4cc(F)ccc34)CC1)CCCC2O` (stereo unspecified) [PALIPERIDONE], for which the “Bacterial Biotransformation” value is listed as “Compound metabolized”.

Values taken from ChEMBL document CHEMBL5303573, “Mapping human microbiome drug metabolism by gut bacteria and their genes” (Nature, 2019).
